In patent US7135472B2, “3-Heterocyclic benzylamide derivatives as potassium channel openers” (Bristol-Myers Squibb Company, priority 2002, dated 2006):

Key:
[1] = test system: peripheral mononeuropathy nerve injury-induced tactile allodynia; experiment: Chung model of neuropathic pain (Chung surgery and von Frey test); assay type: in vivo, male Sprague Dawley rats; conditions: i.v., rat, von Frey thresholds over 90 min post-drug, % MPE (Drug AUC) − % MPE (Vehicle AUC)
Protocol: To test agents for activity against peripheral mononeuropathy nerve injury-induced tactile allodynia, male Sprague Dawley rats (wt. 120–160 g) were surgically prepared with unilateral tight ligation of spinal nerves L5 and L6 following the method of Kim and Chung (Kim S. H., Chung J. M. (1992) Pain, September; 50(3):355–63). After 3–4 weeks recovery, paw withdrawal to light touch was assessed as described by Chaplan et al. (Chaplan S. R., et al., (1994) J. Neurosci Methods, July; 53(1):55–63). In brief, rats are placed in a plastic cage with a wire mesh bottom and allowed to acclimate for 15–30 minutes, until cage exploration and grooming stops. […] After acclimation, baseline von Frey thresholds were assessed for the injured hindpaw at −15 min. […] Following drug administration, von Frey thresholds are measured at 15, 30, 60 and 90 min. Data were analyzed by a 2-way repeated measures analysis of variance followed by Dunnett's test (p<0.05). […]
Reversal of neuropathic pain behavior may be expressed as a percentage (0–100%) of the maximum possible effect, over and above the vehicle effects. […]
For example, a compound which immediately reversed neuropathic pain behavior to normal levels, such that animals only responded to the highest von Frey filament (15 g), and maintained normal levels through out the post-drug testing period (90 min) would be calculated as Δ%MPE=100%.

mKCNQ2 channels = molecular target: T1, mKCNQ2 channels (Mus musculus, UniProt Q9Z351); experiment: KCNQ whole-cell patch-clamp recordings, HEK 293 stable cell line expressing mKCNQ2 channels; assay type: cell-based; conditions: mKCNQ2 currents, HEK 293, whole-cell patch clamp; for Imax (%): Hill fit maximum current; for EC50: at −40 mV
T1 construct: expressed in transfected cells
Protocol: Whole-cell patch-clamp recordings were made from an HEK 293 stable cell line expressing mKCNQ2 channels, maintained in culture for 1–2 days. Patch pipettes had initial resistances of 2.5–4 MΩ. Currents were recorded with an EPC-9 amplifier (HEKA, Lambrecht, Germany) controlled with software (Pulse, HEKA) run on a standard lab PC. Series resistance compensation was used during current recording, and set at 80%. The series resistance (R) and cell capacitance (C) were determined electronically by subtracting the capacitive currents at the onset and offset of a 5 mV voltage step. The cancellation of whole-cell capacitive transients was virtually complete in all cells. Analog current signals were low-pass filtered at 2.9 kHz using a four-pole Bessel filter −3 dB) and stored on a local network server computer at a sampling rate of […]. All recordings were performed at room temperature (20–22° C.). The pipette solution contained (mM): KCl, 150; CaCl2, 2.5; EGTA, 5; MgCl2, 1; HEPES, 10; pH to 7.3 with KOH, and Osmolality of 290–300 mOsm. The extracellular solution contained (mM): NaCl, 140; KCl, 2.5; CaCl2, 2.5; MgCl2, 1; glucose, 10; HEPES, 10; pH to 7.3 with NaOH, and Osmolality of 305–310 mOsm
Concentration response data were generated by measuring the difference in the steady-state amplitude of current in the presence of compound at the end of a 600 ms voltage-clamp step from a holding potential of −80 mV. The concentration-response data were fitted with Hill-type equations: I=Imax/(1+EC50/[A]^nH), where I is the steady-state current at a given concentration of agonist [A]; and Imax, EC50 and nH are parameters estimated from the curve fit. In some cases the concentration-response data were fitted with equations consisting of the sum of two Hill-type components. Current-voltage (I/V) relationships for agonist-evoked currents were obtained by performing 600 ms voltage steps (−110 mV to +40 mV) in the absence and presence of agonist.

Row | SMILES | AUC (Δ % MPE) ([1]; 3 mg/kg) | Imax (%) (mKCNQ2 channels) | EC50 (mKCNQ2 channels) | AUC (Δ % MPE) ([1]; 100 mg/kg)
1 | C[C@H](NC(=O)/C=C/c1ccccc1F)c1cccc(-n2cccn2)c1 [Example 4, (S)-3-(2-Fluoro-phenyl)-N-[1-(3-pyrazol-1-yl-phenyl)-ethyl]-acrylamide] | 24 (3 mg/kg, i.v.) Δ % MPE | 1158% | 0.123 µM | 
2 | C[C@H](NC(=O)CCCc1ccccc1)c1cccc(-c2cccnc2)c1 [Example 17, (S)-4-Phenyl-N-[1-(3-pyridin-3-yl-phenyl)-ethyl]-butyramide] |  | 172% | 0.0007 µM | 
3 | C[C@H](NC(=O)C=Cc1ccccc1)c1cccc(-n2cccn2)c1 [Example 31, (S)-3-Phenyl-N-[1-(3-pyrazol-1-yl-phenyl)-ethyl]-acrylamide] |  | 3364% | 1.24 µM | 
4 | NCC1(CC(=O)O)CCCCC1 [Gabapentin, gabapentin, reference compound] |  |  |  | 50 (100 mg/kg, i.v.) Δ % MPE
